This is an account of results in ChEMBL document CHEMBL1201862, “PubChem BioAssay data set” (2004).

The source made the active and inactive calls. Some results are limits rather than exact numbers.

One data set has as its target Cytochrome P450 2C19 (Homo sapiens, UniProt P33261). Briefly: Cytochrome panel assay with activity outcomes. Panel member name: p450-cyp2c19 Compounds with AC50 equal or less than 10 uM are considered active. It counts as functional.
Data set [1] in a line: Trypanosoma cruzi growth suppression in host cells – NIH3T3 host cells, beta-gal luminescence, confirmation (AID 2044).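 Note: intracellular parasites grown in NIH/3T3 mouse fibroblasts as host cells; luminescent beta-galactosidase reporter signal from transgenic T. cruzi replicating inside host cells; inhibitors lower the luminescence signal.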 It counts as functional, cell-based.
Data set [2] is described as follows: NIH3T3 cell viability loss – ATP luminescence, mouse fibroblasts, counter-screen, dose response (AID 2010).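 Note: cells exposed to compound for about 90 hours before reading.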 It counts as functional, cell-based. Background: Counterscreens check selectivity or assay interference.
The nature of data set [3]: viability of uninfected HEp-2 cells – cell-based, HTS, cytotoxicity control for RSV inhibitor project, dose response (AID 2410). It counts as functional. The note with it: human respiratory syncytial virus.
Data set [4] concerns Streptococcus sp. 'group A'. Description: Streptococcus pyogenes SK(-)GAS viability under kanamycin – luminescence, BacTiterGlo, confirmation, counter-screen for streptokinase expression inhibitor project, dose response (AID 1900). It counts as functional, organism-based.
A further data set deals with T1, Streptokinase A (Streptococcus pyogenes serotype M1, UniProt P10520).
T1 sequence (P10520 whole entry): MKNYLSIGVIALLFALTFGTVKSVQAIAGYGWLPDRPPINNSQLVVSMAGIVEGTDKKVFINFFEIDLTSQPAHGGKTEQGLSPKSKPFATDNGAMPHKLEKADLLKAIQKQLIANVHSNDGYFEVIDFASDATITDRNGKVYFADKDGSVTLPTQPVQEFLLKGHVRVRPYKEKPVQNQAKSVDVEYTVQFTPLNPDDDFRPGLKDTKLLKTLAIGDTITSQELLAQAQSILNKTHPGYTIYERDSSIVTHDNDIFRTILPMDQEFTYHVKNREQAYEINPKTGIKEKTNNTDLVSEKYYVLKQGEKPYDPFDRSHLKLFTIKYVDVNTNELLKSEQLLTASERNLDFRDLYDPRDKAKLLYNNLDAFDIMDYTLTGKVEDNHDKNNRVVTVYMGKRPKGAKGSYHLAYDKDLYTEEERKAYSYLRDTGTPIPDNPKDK
Briefly: viability-normalized secreted streptokinase activity reduction – plasminogen activation absorbance, OD405, dose response (AID 1914).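 Note: secreted streptokinase activity via plasminogen activation per viability signal from cell pellet.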 It counts as functional, Streptococcus pyogenes M1 GAS.

The subject of another data set is Streptococcus. Briefly: GAS UMAA2166 growth inhibition – luminescence, BacTiterGlo, counter-screen for streptokinase expression inhibitor project, dose response (AID 1915).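 Note: potency for reduction of bacterial viability or growth.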 It counts as functional, organism-based.

Sequence of Cytochrome P450 2C19 (P33261 whole entry): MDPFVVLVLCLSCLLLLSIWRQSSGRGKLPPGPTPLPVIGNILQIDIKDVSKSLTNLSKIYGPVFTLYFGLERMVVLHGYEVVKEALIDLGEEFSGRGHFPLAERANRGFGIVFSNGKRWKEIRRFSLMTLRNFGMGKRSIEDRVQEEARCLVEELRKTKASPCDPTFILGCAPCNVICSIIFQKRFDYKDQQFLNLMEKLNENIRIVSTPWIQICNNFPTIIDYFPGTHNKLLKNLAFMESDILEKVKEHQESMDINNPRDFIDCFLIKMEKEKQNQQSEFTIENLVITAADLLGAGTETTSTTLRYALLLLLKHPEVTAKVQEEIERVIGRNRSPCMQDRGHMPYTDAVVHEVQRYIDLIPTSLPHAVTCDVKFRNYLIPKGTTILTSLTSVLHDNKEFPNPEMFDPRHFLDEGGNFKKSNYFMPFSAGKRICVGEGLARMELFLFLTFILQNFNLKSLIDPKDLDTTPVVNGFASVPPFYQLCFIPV

One may read the AC50 as the concentration at which the activity in the assay is half-maximal. Turning to `Cc1ccc(OC(=O)c2cccc(C(=O)Oc3ccc(C)cc3)n2)cc1`, the half-maximal activity concentration (AC50) result at Cytochrome P450 2C19 was “inconclusive”.

In general, EC50 refers to the midpoint of the concentration-response curve. In the case of `CC(C)NCC(O)COCCOc1ccc(Br)cc1` (stereo not drawn), the concentration for a half-maximal effect (EC50) in data set [1] is 1.1 µM (active); in data set [2], > 30 µM (not active).

As to `Cc1ccc(C2c3c(C)nn(-c4ccc([N+](=O)[O-])cc4)c3N=C3C(=O)Nc4ccccc4N32)cc1` (stereo not drawn), the EC50 in data set [1] was 1.45 µM (active); in data set [2], > 60 µM (not active).

As for `COc1cccc(-c2nc(NC3CC3)c3ccccc3n2)c1`, the half-maximal activity concentration (AC50) on Cytochrome P450 2C19 (read-out: AC50) was 10 µM (inconclusive).

On to `Cc1c(C(O)CN2CCN(Cc3ccc4c(c3)OCO4)CC2)c2ccccc2n1C` (stereo not drawn), for which the EC50 in data set [1] is 2.47 µM (active); in data set [2], > 60 µM (not active).

As to `CN(CCOc1ccccc1)C(=O)c1cc([N+](=O)[O-])cc([N+](=O)[O-])c1`, the results for the concentration for a half-maximal effect (EC50) in data set [1] and in data set [2] were 0.7 µM (active) and > 30 µM (not active), respectively.

The CC50 is the concentration that lowers cell viability or growth by half. Regarding `CCc1nc2ccccc2nc1O`, the CC50 in data set [3] was 28.8 µM (active).

Regarding `Cc1cccc(CSc2ncnc3c2cnn3Cc2ccccc2)c1`, the concentration giving a half-maximal response (EC50) in data set [4] was 23 µM (active); at Streptokinase A it was > 150 µM (not active); with Streptococcus, > 150 µM (not active).

As to `CC1N(C)c2cc(NC(=O)c3ccco3)c(P(=O)(Nc3ccc([N+](=O)[O-])cc3)N3CCOCC3)cc2C1(C)C` (stereo not drawn), the CC50 in data set [3] was 18 µM (active).

With `COc1ncc2nc(-c3cn(C)c4ccccc34)c(=O)n(Cc3ccc(F)cc3)c2n1`, the half-maximal activity concentration (AC50) on Cytochrome P450 2C19 (read-out: AC50) was 15.8 µM (inconclusive).

For `C/C(CCC(=O)OC[C@@H]1O[C@H](C#Cc2ccccc2)C=C[C@@H]1Oc1ccc(C)cc1)=N/O[C@@H](C)CN1CCCCc2nc(C)c(C)cc21`, the AC50 at Cytochrome P450 2C19 (read-out: AC50) is 1.26 µM (inconclusive).

Regarding `O=C(c1ccccc1Cl)N1CCN(S(=O)(=O)c2cccs2)CC1`, the EC50 (in data set [4]; at Streptokinase A; in the data set with Streptococcus) was > 150 µM (not active) in each case.

`CCC1CCCCN1c1nc2c(C=O)c(C)nn2c2ccccc12` (stereo not drawn): the half-maximal cytotoxic concentration (CC50) in data set [3] is 20.5 µM (active).

Turning to `CCC/C=C(\CCC)C(NS(=O)(=O)CC12CCC(CC1=O)C2(C)C)c1ccc(C(=O)OC)cc1` (stereo not drawn), the half-maximal activity concentration (AC50) on Cytochrome P450 2C19 (read-out: AC50) was 25.1 µM (inconclusive).

As for `CCOC(=O)c1c(C)[nH]c(C(=O)COC(=O)c2cc(C)oc2C)c1C`, the cytotoxic concentration (CC50) in data set [3] is > 50 µM (active).

As to `O=C(CCCN1C(=O)/C(=C\c2cccs2)SC1=S)Nc1cc([N+](=O)[O-])ccc1O`, the concentration for a half-maximal effect (EC50) in data set [4] was 4.29 µM (active); on Streptokinase A it was 25.3 µM (active); with Streptococcus it was > 150 µM (not active).

Take `CN(C(=S)NC(=O)c1ccccc1)C1CCCCC1`: the EC50 (in data set [4]; on Streptokinase A; in the data set on Streptococcus) was > 150 µM (not active) each time.

Take `O=C(C(Cc1ccccc1)N1C(=O)C2C3CCC(C3)C2C1=O)N1CCCCC1` (stereo not drawn): the AC50 at Cytochrome P450 2C19 (read-out: AC50) is 7.08 µM (inconclusive).

For the compound `Fc1ccc(N2CCN(C3=Nc4cccc5cccc3c45)CC2)cc1`, the concentration giving a half-maximal response (EC50) in data set [1] was 1.74 µM (active); in data set [2], > 30 µM (not active).

For `CCn1c(SCC(=O)OC)nnc1C1CCCCC1`, on Cytochrome P450 2C19 (read-out: AC50), the AC50 is 14.1 µM (inconclusive).

Consider `O=C(NCC1CCCO1)c1cc2c3ccccc3nc-2c(-c2cccc(Cl)c2)[nH]1` (stereo not drawn), for which the EC50 was 4.12 µM (active) in data set [4], > 150 µM (not active) on Streptokinase A and 25.3 µM (active) in the data set on Streptococcus.

On to `CCc1c(C)nc(N)n2c(SCC(=O)Nc3ccccc3)nnc12`, for which the AC50 at Cytochrome P450 2C19 (read-out: AC50) was 22.4 µM (inconclusive).

Consider `CCn1cc(CN2CCCC(C(=O)c3ccc(-c4ccccc4)cc3)C2)cn1` (stereo not drawn), for which the 50% effective concentration (EC50) in data set [1] is 0.222 µM (active); in data set [2] it was 16.7 µM (active).

`FC(F)Sc1ccc(NC(S)=NC(c2ccccc2)c2ccccc2)cc1`: the results for the EC50 (in data set [4]; in the data set with Streptococcus) were 2.4 µM (active) and 3.15 µM (active), respectively.

Take `O=S(=O)(Nc1cccc2c1CCCC2)c1ccc(Cl)cc1`: the EC50 was 4.86 µM (active) in data set [4], 97.8 µM (inconclusive) at Streptokinase A and > 150 µM (not active) in the data set on Streptococcus.

With `O=C(/C=C/c1cc[n+](CC(=O)c2ccc3cccc4c3c2CC4)cc1)c1ccc2cccc3c2c1CC3`, the results for the EC50 in data set [1] and in data set [2] were 0.146 µM (active) and > 60 µM (not active), respectively.

For `CN(C)CCCNc1ncc(C(F)(F)F)cc1Cl`, the half-maximal effective concentration (EC50) in data set [1] is 0.659 µM (active); in data set [2], > 30 µM (not active).

As for `O=C1NC(=O)N(CCc2ccccc2)C(=O)/C1=C(O)/C=C/c1c[nH]c2ccccc12`, the EC50 was 5.47 µM (active) in data set [4], > 150 µM (not active) on Streptokinase A and 5.6 µM (active) in the data set with Streptococcus.

`COc1ccc(Oc2nc(C(F)(F)F)nc3ccccc23)cc1`: the EC50 was 29.1 µM (active) in data set [4], 46.8 µM (active) at Streptokinase A and > 150 µM (not active) with Streptococcus.

`CCOCCCN=C(S)NCCNc1nc2c(C)cccc2cc1C#N`: the values for the half-maximal effective concentration (EC50) in data set [1] and in data set [2] were 2.73 µM (active) and > 60 µM (not active), respectively.

As for `C=CCn1c(SCc2cc(=O)n3ccsc3n2)nc2scc(C3CC3)c2c1=O`, the CC50 in data set [3] was 33.1 µM (active).

Regarding `Cc1cnn(-c2nc(-c3ccccc3)cc(-c3ccccc3)n2)c1`, the half-maximal effective concentration (EC50) in data set [4] was 9.49 µM (active); on Streptokinase A it was 27.2 µM (active); in the data set with Streptococcus, > 150 µM (not active).

For `Cc1ccc2nc(O)c(CN(CCCN(C)C)C(S)=NCCc3ccccc3)cc2c1`, the half-maximal effective concentration (EC50) in data set [1] is 0.409 µM (active); in data set [2], > 60 µM (not active).

For the compound `CCN(CC)CCN(C)C(=O)CCc1nnc(-c2ccc(C)s2)o1`, the results for the concentration giving a half-maximal response (EC50) in data set [1] and in data set [2] were 1.35 µM (active) and > 60 µM (not active), respectively.

For `O=C(Nc1nc(-c2ccccn2)cs1)C1CC1`, the 50% effective concentration (EC50) (in data set [4]; at Streptokinase A; with Streptococcus) was > 150 µM (not active) each time.

For `CN1CCC(OC(=O)c2ccccc2Cl)CC1`, the concentration for a half-maximal effect (EC50) is 0.178 µM (active) in data set [1] and 10.5 µM (active) in data set [2].

On to `Sc1nnc(-c2cccs2)n1/N=C/c1cn(-c2ccccc2)nc1-c1ccccc1`, for which the concentration giving a half-maximal response (EC50) in data set [4] is 6.85 µM (active); at Streptokinase A it was > 150 µM (not active); with Streptococcus it was 71.7 µM (active).

For the compound `NC(=S)N/N=C\c1c(OCc2ccccc2Cl)ccc2ccccc12`, the EC50 in data set [4] is 2.39 µM (active); on Streptokinase A, > 150 µM (not active); in the data set with Streptococcus, > 150 µM (not active).

`COC(=O)[C@@H]1CC[C@H](C)[C@@H](c2ccc(C)cc2)N1C(=O)c1ccc(/C=N/O[C@@H](C)c2cn([C@H](CO)Cc3ccccc3)nn2)cc1`: the half-maximal effective concentration (EC50) is 0.891 µM (active) in data set [1] and > 60 µM (inconclusive) in data set [2].

For the compound `Cn1c[n+](C)cc1/C=N/O`, the half-maximal activity concentration (AC50) on Cytochrome P450 2C19 (read-out: AC50) is 8.91 µM (inconclusive).

With `C=CCNC(=O)O/N=C/c1csc([N+](=O)[O-])c1`, the concentration for a half-maximal effect (EC50) in data set [1] is 1.93 µM (active); in data set [2] it was > 60 µM (not active).

Regarding `Cn1c(=O)c2[nH]c(-c3ccc(S(=O)(=O)O)cc3)nc2n(C)c1=O`, at Cytochrome P450 2C19, the concentration at half-maximal activity (AC50) result was “inconclusive”.

Take `O=C(N[C@H](CO)[C@H](O)c1ccc([N+](=O)[O-])cc1)C(Cl)Cl` [CHLORAMPHENICOL]: the EC50 in data set [4] was 1.84 µM (active); with Streptococcus it was 2.55 µM (active).
